We go through one compound from patent publication EP0944595B1, “5-CYCLO INDOLE COMPOUNDS AS 5-HT1D RECEPTOR LIGANDS” (NPS Allelix Corp., priority 1996, dated 1998).

In this test the test system is protein extravasation. The test can be described thus: Inhibition of protein extravasation, trigeminal stimulation assay. It counts as in vivo, Guinea pigs. To be noted: guinea pig dura mater, [125I]-BSA extravasation after stimulation of the right trigeminal ganglion. The procedure:
Compounds of the inventions were evaluated for their ability to block neurogenic inflammation via inhibition of protein extravasation using the trigeminal stimulation assay as described in Markowitz, et al. J, Neurosci. 1987, 7:4129 and Lee, et al. Brain Res, 1993, 626:303. This is believed to indicate a compound's ability to act as an agonist at the 5-HT1Da and/or 5-HT1F receptors.
Guinea pigs were anesthetized with pentobarbitone sodium (60 mg kg^-1, i.p.). Animals were placed in a stereotaxic frame (DKI 900, David Kopf Instruments, Tujunga, CA, U.S.A.). The right femoral vein was exposed and [^125I]-BSA ([…]) was injected as a bolus. With the incisor bar set at -1.5 mm from the horizontal line, the calvarium was exposed by a midline incision. Symmetrical burr holes (2 mm in diameter) were drilled at 3.7 mm posterior to the bregma and 3.2 mm lateral to the sagittal suture. Bipolar electrodes (50 mm shaft, Rhodes Medical Instruments, Woodland Hills, CA, U.S.A.) were lowered into the trigeminal ganglia to a depth of 9.5 mm from the dura mater overlying the dorsal surface of the brain. […] Radioactivity was determined on two sides with a gamma counter (Micromedic 4/600, Micromedic Systems, Inc., Huntsville, AL, U.S.A.) as previously described (Markowitz, et al., 1987 and Lee, et al., 1993).

As for `CNS(=O)(=O)Cc1ccc2[nH]cc(CCN(C)C)c2c1` [sumatriptan], the ID50 fell in the range of 3.3 to 7 nM/kg.
